Test results reported in PubChem BioAssay (NCI).
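Assay format: 96-well plates, 48-hour exposure. Here, GI50 denotes the concentration required for 50% inhibition of growth. TGI is the concentration that stops growth completely.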

Columns and labels:
Assay in all cases: NCI-60 cell line screen, 48 h
[1] = system: SF-539 CNS
[2] = system: CCRF-CEM leukemia
[3] = system: HS 578T breast
[4] = system: SN12C renal
[5] = system: TK-10 renal
[6] = system: DU-145 prostate
[7] = system: NCI-H23 lung
[8] = system: K-562 leukemia
[9] = system: EKVX NSCLC
[10] = system: COLO 205 colon
[11] = system: PC-3 prostate
[12] = system: MALME-3M melanoma
[13] = system: SK-MEL-28 melanoma
[14] = system: SK-OV-3 ovarian
[15] = system: SW-620 colon
[16] = system: MDA-MB-231 breast
[17] = system: HCC-2998 colon
[18] = system: SK-MEL-2 melanoma
[19] = system: NCI-H522 lung
[20] = system: CAKI-1 renal
[21] = system: MCF7 breast
[22] = system: UACC-257 melanoma
[23] = system: OVCAR-3 ovarian
[24] = system: UO-31 renal
[25] = system: M14 melanoma
[26] = system: SR leukemia
[27] = system: A498 renal
[28] = system: RPMI-8226 leukemia
[29] = system: ACHN renal
[30] = system: BT-549 breast
[31] = system: SK-MEL-5 melanoma
[32] = system: NCI-H226 lung
[33] = system: SNB-75 CNS
[34] = system: OVCAR-8 ovarian
[35] = system: MOLT-4 leukemia
[36] = system: HT29 colon
[37] = system: UACC-62 melanoma
[38] = system: HCT-15 colon
[39] = system: HOP-62 NSCLC
[40] = system: HL-60(TB) leukemia
[41] = system: SNB-19 CNS
[42] = system: RXF 393 renal
[43] = system: LOX IMVI melanoma
[44] = system: A549 NSCLC
[45] = system: U251 CNS
[46] = system: KM12 colon
[47] = system: T-47D breast
[48] = system: HCT-116 colon
[49] = system: NCI-H460 lung
[50] = system: 786-0 renal
[51] = system: SF-268 CNS
[52] = system: NCI/ADR-RES ovarian
[53] = system: MDA-MB-435
[54] = system: IGROV1 ovarian
[55] = system: SF-295 CNS
[56] = system: OVCAR-4 ovarian
[57] = system: HOP-92 NSCLC
[58] = system: OVCAR-5 ovarian

## Cn1c(CO)ccc1-c1ccc(-c2ccc(CO)[se]2)[se]1
[1]
  TGI: > 100 µM
[2]
  TGI: > 21 µM
[3]
  TGI: > 100 µM
[4]
  TGI: > 100 µM
[5]
  TGI: > 78.1 µM
[6]
  TGI: > 100 µM
[7]
  TGI: > 74.8 µM
[8]
  TGI: 98.5 µM
[9]
  TGI: > 100 µM
[10]
  TGI: 9.23 µM
[11]
  TGI: > 100 µM
[12]
  TGI: 17.7 µM
[13]
  TGI: > 100 µM
[14]
  TGI: > 100 µM
[15]
  TGI: > 100 µM
[16]
  TGI: > 67.2 µM
[17]
  TGI: 22.5 µM
[18]
  TGI: 26.9 µM
[19]
  TGI: > 86.3 µM
[20]
  TGI: 0.0381 µM
[21]
  TGI: > 40 µM
[22]
  TGI: > 100 µM
[23]
  TGI: 26.7 µM
[24]
  TGI: > 100 µM
[25]
  TGI: > 73.8 µM
[26]
  TGI: > 100 µM
[27]
  TGI: 0.0684 µM
[28]
  TGI: 12.1 µM
[29]
  TGI: > 75.3 µM
[30]
  TGI: > 91.4 µM
[31]
  TGI: 6.74 µM
[32]
  TGI: 2.56 µM
[33]
  TGI: > 100 µM
[34]
  TGI: 55.6 µM
[35]
  TGI: > 51.2 µM
[36]
  TGI: > 100 µM
[37]
  TGI: 31.5 µM
[38]
  TGI: > 70.6 µM
[39]
  TGI: 40.8 µM
[40]
  TGI: > 59.1 µM
[41]
  TGI: > 100 µM
[42]
  TGI: > 100 µM
[43]
  TGI: 41.2 µM
[44]
  TGI: > 100 µM
[45]
  TGI: 24.4 µM
[46]
  TGI: > 64.1 µM
[47]
  TGI: > 100 µM
[48]
  TGI: 60 µM
[49]
  TGI: > 100 µM
[50]
  TGI: > 76 µM
[51]
  TGI: > 100 µM
[52]
  TGI: > 100 µM
[53]
  TGI: 45.6 µM
[54]
  TGI: 12.4 µM
[55]
  TGI: > 100 µM
[56]
  TGI: 3.67 µM

## COC(=O)c1ccc(NC(N)=NCCC(C)(C)c2ccc(C(F)(F)F)cc2)nc1
[1]
  GI50: 1.74 µM
  TGI: 3.53 µM
[2]
  GI50: 3.01 µM
  TGI: 11 µM
[3]
  GI50: 2.98 µM
  TGI: 9.9 µM
[4]
  GI50: 1.7 µM
  TGI: 3.25 µM
[5]
  GI50: 4.75 µM
  TGI: 17.6 µM
[6]
  GI50: 3.44 µM
  TGI: 13.9 µM
[7]
  GI50: 2.15 µM
  TGI: 11.5 µM
[8]
  GI50: 1.3 µM
  TGI: 3.72 µM
[10]
  GI50: 1.7 µM
  TGI: 3.41 µM
[11]
  GI50: 3.91 µM
  TGI: 15.5 µM
[12]
  GI50: 1.7 µM
  TGI: 3.37 µM
[13]
  GI50: 1.64 µM
  TGI: 3.23 µM
[14]
  GI50: 6.63 µM
  TGI: 19.2 µM
[15]
  GI50: 2.03 µM
  TGI: 4.19 µM
[16]
  GI50: 1.76 µM
  TGI: 3.34 µM
[17]
  GI50: 1.79 µM
  TGI: 3.64 µM
[18]
  GI50: 3.22 µM
  TGI: 10.5 µM
[19]
  GI50: 3.1 µM
  TGI: 13 µM
[20]
  GI50: 2.8 µM
  TGI: 14.2 µM
[21]
  GI50: 1.7 µM
  TGI: 3.87 µM
[22]
  GI50: 2.03 µM
  TGI: 4.34 µM
[23]
  GI50: 1.78 µM
  TGI: 4.08 µM
[24]
  GI50: 2.9 µM
  TGI: 15.6 µM
[25]
  GI50: 1.7 µM
  TGI: 3.8 µM
[26]
  GI50: 0.892 µM
  TGI: 2.91 µM
[27]
  GI50: 2.64 µM
  TGI: 14.7 µM
[28]
  GI50: 1.65 µM
  TGI: 4.26 µM
[29]
  GI50: 1.91 µM
  TGI: 4.85 µM
[30]
  GI50: 4.85 µM
  TGI: 18.1 µM
[31]
  GI50: 1.56 µM
  TGI: 2.99 µM
[32]
  GI50: 3.33 µM
  TGI: 18.8 µM
[33]
  GI50: 5.51 µM
  TGI: 19.8 µM
[34]
  GI50: 2.04 µM
  TGI: 4.63 µM
[35]
  GI50: 1.88 µM
  TGI: 7.33 µM
[36]
  GI50: 2.55 µM
  TGI: 6.83 µM
[37]
  GI50: 1.58 µM
  TGI: 3.07 µM
[38]
  GI50: 1.99 µM
  TGI: 5.12 µM
[39]
  GI50: 6.16 µM
  TGI: 22 µM
[40]
  GI50: 1.74 µM
  TGI: 3.71 µM
[41]
  GI50: 3.3 µM
  TGI: 11.5 µM
[42]
  GI50: 2.18 µM
  TGI: 5.06 µM
[43]
  GI50: 1.57 µM
  TGI: 2.98 µM
[44]
  GI50: 4.83 µM
  TGI: 17.2 µM
[45]
  GI50: 2.01 µM
  TGI: 3.89 µM
[46]
  GI50: 2.65 µM
  TGI: 9.12 µM
[47]
  GI50: 1.62 µM
  TGI: 4.71 µM
[48]
  GI50: 1.6 µM
  TGI: 3.3 µM
[49]
  GI50: 2.06 µM
  TGI: 4.56 µM
[50]
  GI50: 7.64 µM
  TGI: 28.2 µM
[51]
  GI50: 6.23 µM
  TGI: 24.8 µM
[57]
  GI50: 5.54 µM
  TGI: 23.8 µM
[58]
  GI50: 2.98 µM
  TGI: 13.5 µM
[52]
  GI50: 2.35 µM
  TGI: 6.03 µM
[53]
  GI50: 1.83 µM
  TGI: 4.16 µM
[54]
  GI50: 1.77 µM
  TGI: 3.82 µM
[55]
  GI50: 1.63 µM
  TGI: 3.51 µM
[56]
  GI50: 1.71 µM
  TGI: 9.18 µM

## COc1cc2c(cc1O)NC(=O)[C@@H]1C[C@@H](O)CN1C2=O
[1]
  TGI: > 100 µM
[2]
  TGI: > 100 µM
[3]
  TGI: > 100 µM
[4]
  TGI: > 100 µM
[5]
  TGI: > 100 µM
[6]
  TGI: > 100 µM
[7]
  TGI: > 100 µM
[8]
  TGI: > 100 µM
[9]
  TGI: > 100 µM
[10]
  TGI: > 100 µM
[11]
  TGI: > 100 µM
[12]
  TGI: > 100 µM
[13]
  TGI: > 100 µM
[14]
  TGI: > 100 µM
[15]
  TGI: > 100 µM
[16]
  TGI: > 100 µM
[17]
  TGI: > 100 µM
[18]
  TGI: > 100 µM
[19]
  TGI: > 100 µM
[20]
  TGI: > 100 µM
[21]
  TGI: > 100 µM
[22]
  TGI: > 100 µM
[23]
  TGI: > 100 µM
[24]
  TGI: > 100 µM
[25]
  TGI: > 100 µM
[26]
  TGI: > 100 µM
[27]
  TGI: > 100 µM
[28]
  TGI: > 100 µM
[29]
  TGI: > 100 µM
[30]
  TGI: > 100 µM
[31]
  TGI: > 100 µM
[32]
  TGI: > 100 µM
[33]
  TGI: > 100 µM
[34]
  TGI: > 100 µM
[35]
  TGI: > 100 µM
[36]
  TGI: > 100 µM
[37]
  TGI: > 100 µM
[38]
  TGI: > 100 µM
[39]
  TGI: > 100 µM
[41]
  TGI: > 100 µM
[42]
  TGI: > 100 µM
[43]
  TGI: > 100 µM
[44]
  TGI: > 100 µM
[45]
  TGI: > 100 µM
[46]
  TGI: > 100 µM
[47]
  TGI: > 100 µM
[48]
  TGI: > 100 µM
[49]
  TGI: > 100 µM
[50]
  TGI: > 100 µM
[51]
  TGI: > 100 µM
[57]
  TGI: > 100 µM
[58]
  TGI: > 100 µM
[52]
  TGI: > 100 µM
[53]
  TGI: > 100 µM
[54]
  TGI: > 100 µM
[55]
  TGI: > 100 µM
[56]
  TGI: > 100 µM
